Values joined by “and” are separate entries in the source; they are usually repeats but may differ in a detail not shown here. Equal values may be shown once.
Tests used:
[1] = test system: catalepsy caused by haloperidol; assay: Haloperidol catalepsy (inclined grid); type: in vivo, rats; conditions: for Minimal effective dose of memantine eliminating catalepsy (immobilization time on an inclined grid below 40 seconds), haloperidol 1 mg/kg / Minimal effective dose of memantine eliminating catalepsy (immobilization time on an inclined grid below 40 seconds), haloperidol 3 mg/kg: memantine alone; for Minimal effective dose of memantine eliminating catalepsy (immobilization time on an inclined grid below 40 seconds), haloperidol 3 mg/kg: catalepsy only partially eliminated at this dose (immobilization time 60-70 seconds)
Method: Haloperidol catalepsy is a test for selecting anti-parkinson agents [Campbell A., Baldessarini R. J. Cremens M. C. Neuropharmacology (1988), 27(11):1197-9; Ossowska K. J. Neural. Transm. Park. Dis. Dement. Sect. (1994) 8(1-2):39-71]. Catalepsy degree was estimated by the immobilization time (in sec) of a rat placed on a coarse-mesh grid at an angle of 45° during a 3-minute exposition [Campbell A., Baldessarini R. J., Cremens M. C. Neuropharmacology (1988) 27(11):1197-9 ] 30, 60, 90 and 120 minutes after haloperidol administration. Maximal catalepsy was attained in 40-60 minutes after haloperidol administration (immobilization time on the grid was 140-180 sec) and lasted from 2 to 6 hours depending on the dose of haloperidol (1 or 3 mg/kg). The minimal effective dose of the anti-parkinson agent memantine causing a maximal anticataleptic effect (immobilization time on an inclined grid less than 40 sec) 1 hour after haloperidol administration at a dose of 1 and 3 mg/kg was calculated.
To estimate the potentiation effect of memantine, the minimal effective dose of memantine in the composition causing a maximal anticataleptic effect was determined.

reflex of tail flicking = assay: Tail-flick test (analgesic effect); type: in vivo, rats; conditions: drug alone
Method: For these studies, solutions of the composition of the invention were used, which. were prepared using distilled water immediately before administration. The solutions were administered either orally (IG), by a rigid metal probe into the cardiac section of the stomach at a total amount of 0.8 ml, or intramuscularly (IM) at an amount of 0.2 ml, 30 min before testing.
The analgesic effect of the components was estimated by an extension of the latent period of the reflex of tail flicking in the “tail-flick” test [Woolf C. J., Barret G. D., Mitchel D., Myers R. A. (1977) Eur. J. Pharmacol. 45(3);311-314] and of the reflex of hind leg flicking in the hyperalgesia test [Coderre T. J., Melzack R. Brain Res. (1987) 404(1-2):95-106].
For the “tail-flick” test, hyperalgesic rats were selected (latent period of tail flicking on placing into water with a temperature of 51° C. was 3-4 sec).

MK-toxicity = MK-toxicity (behavioral toxicity caused by MK-801); type: in vivo, rats; conditions: haloperidol alone, at this dose only ataxia eliminated, MK-toxicity only partially eliminated
Method: (§1) Antipsychotic effect of neuroleptics was studied using the model of behavioral toxicity “MK-toxicity” caused by a blocker of NMDA receptors MK-801 (Lapin T. P., Rogawski M. A. Behav. Brain Res. (1995) 70(2):145-151) and a model of phenaminic stereotypy caused by phenamine (Kuczenski R., Schmidt D, Leith N. Brain Res. (1977), 126(1):117-129).
(§2) The minimal effective dose of the neuroleptic haloperidol necessary to completely prevent the development of “MK-toxicity” (MK-801 at a dose of 0.4 mg/kg IM) and phenaminic stereotypy (phenamine at a dose of 10 mg/kg IM) in 80% of the rats was calculated. To estimate the potentiation of the antipsychotic effect of haloperidol, the minimal effective dose of haloperidol in compositions, which completely prevents the development of MK-toxicity and phenaminic stereotypy in rats, was determined.

phenaminic stereotypy [2] = assay: Phenaminic stereotypy (antipsychotic effect of haloperidol); type: in vivo, rats; conditions: haloperidol alone, phenamine 10 mg/kg IM
Method: as §1, §2

low-active rats = assay: Porsolt's test, low-active rats; type: in vivo; conditions: drug alone
Method: (§3) Antidepressive effects was studied by Porsolt's test [Porsolt R. D., Anton G., Blavet N., Jalfre M. Eur. J. Pharmacol.(1978), 47(4):379-91]. For each rat under study, the total immobilization time was determined during 10 min of forced swimming in a glass vessel at a water temperature of 22° C. The animals were subdivided into three groups according to their immobilization time: highly-, medium- and low-active (immobilization time below 80 sec. 100-140 sec and above 150 sec, respectively).
(§4) I. N., Kryzhanovskii G. N. Biull. Eksp. Biol. Med. (1995) 120(8): 160-3] 30 min before testing at a dose of 15 mg/kg. […] (60 min before a repeated examination in Porsolt's test), and also to low-active rats 30 min. before a repeated study in Porsolt's test.
(§5) To determine the degree of potentiation of the effect of antidepressants, their minimal effective dose within the compositions, which caused a maximal antidepressive effect (immobilization time—below 80 s) in low-active rats and in rats with MPTP-depression was determined.

[3] = test system: rats with MPTP-depression; assay: Porsolt's test, rats with MPTP depression (MPTP 15 mg/kg IM); type: in vivo; conditions: drug alone
Method: as §3, §4, §5

[4] = test system: behavioral depression caused by a toxic dose of MPTP; assay: Forced swimming test after a toxic dose of MPTP (30 mg/kg IM); type: in vivo, rats
Method: In a forced swimming test, the ability of amitriptyline and its compositions to eliminate the effect of toxic doses of MPTP was studied. Single administration of high MPTP doses (30 mg/kg) causes acute suppression of motor activity (akinesis), catalepsy, and muscular rigidity. Antidepressants reduce behavioral depression caused by a single administration of toxic doses of MPTP. The behavioral depression was studied in a forced swimming test of a group of active rats after the administration of a toxic dose of MPTP (30 mg/kg IM). Swimming duration (maximal swimming duration—10 min) and the time of forced immobilization during the first 5 min of swimming (under the condition that swimming duration exceeds 5 min) was estimated in the forced swimming test 30 min after MPTP administration. Drugs were administered IM or IG 30 min before MPTP administration.
To estimate the potentiation of the effects of amitriptyline (its ability to reduce toxic effects of MPTP), the minimal effective dose of amitriptyline in the composition, which increased swimming time up to 9-10 min and reduced immobilization time during the first 5 min of swimming down to 20-30 sec was determined.

phenaminic stereotypy [5] = assay: Potentiation of phenaminic stereotypy (psychostimulant effect of phenamine); type: in vivo, rats; conditions: phenamine + distilled water
Method: The potentiation of the effect of psychostimulants was studied using the model of phenaminic stereotypy [Kuczenski R., Schmidt D., Leith N. Brain Res. (1977), 126(1):117-29]. Phenamine at a dose of 10 mg/kg IM, or 20 mg/kg IG, causes a marked behavioral stereotypy. To estimate the potentiation effect of phenamine, a phenamine dose in the IM or IG introduced composition was determined, which causes the same stereotypy as phenamine alone at a dose of 10 mg/kg, IM or 20 mg/kg, IG.

[6] = IG, amitriptyline 30 mg/kg, alone or with phenylephrine 0.004 mg/kg
[7] = IM, amitriptyline 30 mg/kg, alone or with phenylephrine 0.002 mg/kg (text b94: 0.003)

## CC12CC3CC(C)(C1)CC(N)(C3)C2 [Memantine, memantine]
[1]; IG
  Minimal effective dose of memantine eliminating catalepsy (immobilization time on an inclined grid below 40 seconds), haloperidol 1 mg/kg: 11.5 mg/kg and 11.5 ± 1.2 mg/kg
  Minimal effective dose of memantine eliminating catalepsy (immobilization time on an inclined grid below 40 seconds), haloperidol 3 mg/kg: > 16.0 mg/kg
[1]; IG, listed as memantine
  Minimal effective dose of memantine eliminating catalepsy (immobilization time on an inclined grid below 40 seconds), haloperidol 3 mg/kg: > 16 mg/kg
[1]; IM
  Minimal effective dose of memantine eliminating catalepsy (immobilization time on an inclined grid below 40 seconds), haloperidol 1 mg/kg: 7.5 ± 0.7 mg/kg
  Minimal effective dose of memantine eliminating catalepsy (immobilization time on an inclined grid below 40 seconds), haloperidol 3 mg/kg: > 15.0 mg/kg
[1]; IM, listed as memantine
  Minimal effective dose of memantine eliminating catalepsy (immobilization time on an inclined grid below 40 seconds), haloperidol 3 mg/kg: > 15 mg/kg
  Minimal effective dose of memantine eliminating catalepsy (immobilization time on an inclined grid below 40 seconds), haloperidol 1 mg/kg: 7.5 mg/kg
[1]; memantine 15 mg/kg IM
  Immobilization time of rats on an inclined grid, catalepsy caused by haloperidol 3 mg/kg: 60 to 70 s
[1]; memantine 16 mg/kg IG
  Immobilization time of rats on an inclined grid, catalepsy caused by haloperidol 3 mg/kg: 60 to 70 s

## Cc1c(N(C)CS(=O)(=O)[O-])c(=O)n(-c2ccccc2)n1C.[Na+] [Dipyrone]
Reflex of tail flicking; IG
  Minimal effective dose of the analgesic causing maximal analgesia in tail-flick test (latent period of tail flicking reflex more than 30 sec): 20 mg/kg and 20 ± 2.3 mg/kg

## O=C(CCCN1CCC(O)(c2ccc(Cl)cc2)CC1)c1ccc(F)cc1 [Haloperidol, haloperidol]
MK-toxicity; IG
  Minimal effective dose of haloperidol completely preventing MK-toxicity (MK-801 0.4 mg/kg IM): > 1 mg/kg
MK-toxicity; IG, listed as haloperidol
  Minimal effective dose of haloperidol completely preventing MK-toxicity (MK-801 0.4 mg/kg IM): > 1 mg/kg
MK-toxicity; IM
  Minimal effective dose of haloperidol completely preventing MK-toxicity (MK-801 0.4 mg/kg IM): > 1 mg/kg
MK-toxicity; IM, listed as haloperidol
  Minimal effective dose of haloperidol completely preventing MK-toxicity (MK-801 0.4 mg/kg IM): > 1 mg/kg
Phenaminic stereotypy [2]; IG
  Minimal effective dose of haloperidol completely preventing phenaminic stereotypy in 80% of rats: 0.18 ± 0.022 mg/kg
Phenaminic stereotypy [2]; IG, listed as haloperidol
  Minimal effective dose of haloperidol completely preventing phenaminic stereotypy in 80% of rats: 0.18 mg/kg
Phenaminic stereotypy [2]; IM
  Minimal effective dose of haloperidol completely preventing phenaminic stereotypy in 80% of rats: 0.15 ± 0.017 mg/kg
Phenaminic stereotypy [2]; IM, listed as haloperidol
  Minimal effective dose of haloperidol completely preventing phenaminic stereotypy in 80% of rats: 0.15 mg/kg

## CN(C)CCC=C1c2ccccc2CCc2ccccc21 [Amitriptyline, amitriptyline]
low-active rats; IG
  Minimal effective dose of the antidepressant causing a maximal antidepressive effect (immobilization time below 80 sec), low-active rats: 2.0 ± 0.24 mg/kg
low-active rats; IG, listed as amitriptyline
  Minimal effective dose of the antidepressant causing a maximal antidepressive effect (immobilization time below 80 sec), low-active rats: 2 mg/kg
low-active rats; IM
  Minimal effective dose of the antidepressant causing a maximal antidepressive effect (immobilization time below 80 sec), low-active rats: 5.2 ± 0.6 mg/kg
low-active rats; IM, listed as amitriptyline
  Minimal effective dose of the antidepressant causing a maximal antidepressive effect (immobilization time below 80 sec), low-active rats: 5.0 mg/kg
[3]; IG
  Minimal effective dose of the antidepressant causing a maximal antidepressive effect (immobilization time below 80 sec), highly active rats with MPTP depression: 2.5 ± 0.5 mg/kg
[3]; IG, listed as amitriptyline
  Minimal effective dose of the antidepressant causing a maximal antidepressive effect (immobilization time below 80 sec), highly active rats with MPTP depression: 2.5 mg/kg
[3]; IM
  Minimal effective dose of the antidepressant causing a maximal antidepressive effect (immobilization time below 80 sec), highly active rats with MPTP depression: 7.0 ± 0.8 mg/kg
[3]; IM, listed as amitriptyline
  Minimal effective dose of the antidepressant causing a maximal antidepressive effect (immobilization time below 80 sec), highly active rats with MPTP depression: 7.2 mg/kg
[4]; [6]
  Duration of forced swimming until drowning 30 min after MPTP 30 mg/kg (maximal recorded time 600 seconds): 340 s and 340 ± 37 s
  Immobilization time during the first 5 minutes of forced swimming, 30 min after MPTP 30 mg/kg: 78 s and 78 ± 8.5 s
[4]; IM, amitriptyline 20 mg/kg
  Duration of forced swimming until drowning 30 min after MPTP 30 mg/kg (maximal recorded time 600 seconds): 220 ± 25 s
[4]; [7]
  Duration of forced swimming until drowning 30 min after MPTP 30 mg/kg (maximal recorded time 600 seconds): 410 s and 410 ± 46 s
  Immobilization time during the first 5 minutes of forced swimming, 30 min after MPTP 30 mg/kg: 61 s and 61 ± 6.3 s

## CNCCC(Oc1ccc(C(F)(F)F)cc1)c1ccccc1 (stereo not drawn) [Fluoxetine]
low-active rats; IG
  Minimal effective dose of the antidepressant causing a maximal antidepressive effect (immobilization time below 80 sec), low-active rats: 5.5 mg/kg and 5.5 ± 0.7 mg/kg
low-active rats; IM
  Minimal effective dose of the antidepressant causing a maximal antidepressive effect (immobilization time below 80 sec), low-active rats: 10.6 mg/kg and 10.6 ± 1.2 mg/kg
[3]; IM
  Minimal effective dose of the antidepressant causing a maximal antidepressive effect (immobilization time below 80 sec), highly active rats with MPTP depression: 16.2 mg/kg and 16 ± 2.1 mg/kg

## CC(N)Cc1ccccc1 (stereo not drawn) [Phenamine, phenamine]
Phenaminic stereotypy [5]; IG
  Dose of phenamine causing the same behavioral stereotypy as phenamine 10 mg/kg IM: 20.2 ± 2.3 mg/kg
Phenaminic stereotypy [5]; IG, listed as phenamine
  Dose of phenamine causing the same behavioral stereotypy as phenamine 10 mg/kg IM: 20 mg/kg
Phenaminic stereotypy [5]; IM
  Dose of phenamine causing the same behavioral stereotypy as phenamine 10 mg/kg IM: 10.0 ± 1.1 mg/kg
Phenaminic stereotypy [5]; IM, listed as phenamine
  Dose of phenamine causing the same behavioral stereotypy as phenamine 10 mg/kg IM: 10 mg/kg

## CN1CC[C@]23c4c5ccc(O)c4O[C@H]2[C@@H](O)C=C[C@H]3[C@H]1C5 [Morphine, morphine]
Reflex of tail flicking; IG
  Minimal effective dose of the analgesic causing maximal analgesia in tail-flick test (latent period of tail flicking reflex more than 30 sec): 3 ± 0.35 mg/kg
Reflex of tail flicking; IG, listed as morphine
  Minimal effective dose of the analgesic causing maximal analgesia in tail-flick test (latent period of tail flicking reflex more than 30 sec): 3 mg/kg
Reflex of tail flicking; IM
  Minimal effective dose of the analgesic causing maximal analgesia in tail-flick test (latent period of tail flicking reflex more than 30 sec): 3.0 ± 0.37 mg/kg
Reflex of tail flicking; IM, listed as morphine
  Minimal effective dose of the analgesic causing maximal analgesia in tail-flick test (latent period of tail flicking reflex more than 30 sec): 3 mg/kg
